Measurements reported in PubChem BioAssay (NCI).
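Interpolation was linear, between the two tested concentrations surrounding the appropriate level; five concentrations were tested over 48 hours in 96-well plates. GI50 is the concentration that inhibits growth by half. TGI denotes the concentration required for complete inhibition of growth.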

Legend:
Assay in all cases: NCI tumour cell line growth inhibition, 48 h
[1] = system: 786-0 renal
[2] = system: A498 renal
[3] = system: A549 NSCLC
[4] = system: ACHN renal
[5] = system: BT-549 breast
[6] = system: CAKI-1 renal
[7] = system: CCRF-CEM leukemia
[8] = system: COLO 205 colon
[9] = system: DU-145 prostate
[10] = system: EKVX NSCLC
[11] = system: HCC-2998 colon
[12] = system: HCT-116 colon
[13] = system: HCT-15 colon
[14] = system: HL-60(TB) leukemia
[15] = system: HOP-62 NSCLC
[16] = system: HOP-92 NSCLC
[17] = system: HS 578T breast
[18] = system: HT29 colon
[19] = system: IGROV1 ovarian
[20] = system: K-562 leukemia
[21] = system: KM12 colon
[22] = system: LOX IMVI melanoma
[23] = system: M14 melanoma
[24] = system: MALME-3M melanoma
[25] = system: MCF7 breast
[26] = system: MDA-MB-231 breast
[27] = system: MDA-MB-435
[28] = system: MDA-MB-468 breast
[29] = system: MOLT-4 leukemia
[30] = system: NCI-H226 lung
[31] = system: NCI-H23 lung
[32] = system: NCI-H460 lung
[33] = system: NCI-H522 lung
[34] = system: NCI/ADR-RES ovarian
[35] = system: OVCAR-3 ovarian
[36] = system: OVCAR-4 ovarian
[37] = system: OVCAR-5 ovarian
[38] = system: OVCAR-8 ovarian
[39] = system: PC-3 prostate
[40] = system: RPMI-8226 leukemia
[41] = system: RXF 393 renal
[42] = system: SF-268 CNS
[43] = system: SF-295 CNS
[44] = system: SF-539 CNS
[45] = system: SK-MEL-2 melanoma
[46] = system: SK-MEL-28 melanoma
[47] = system: SK-MEL-5 melanoma
[48] = system: SK-OV-3 ovarian
[49] = system: SN12C renal
[50] = system: SNB-19 CNS
[51] = system: SNB-75 CNS
[52] = system: SR leukemia
[53] = system: SW-620 colon
[54] = system: T-47D breast
[55] = system: TK-10 renal
[56] = system: U251 CNS
[57] = system: UACC-257 melanoma
[58] = system: UACC-62 melanoma
[59] = system: UO-31 renal

**Q.** How did the GI50 [1] turn out when COc1ccc2[nH]c(O)c(N=NC(=O)COc3ccc(NC(=O)Nc4ccccc4)cc3)c2c1 was run?
**A.** 13.6 µM

**Q.** What about the TGI [1] of the same molecule?
**A.** 30.6 µM

**Q.** What about the GI50 [2] of the same molecule?
**A.** 18.3 µM

**Q.** And the TGI [2]?
**A.** 38.4 µM

**Q.** And the GI50 [3]?
**A.** 21.9 µM

**Q.** And the TGI [3]?
**A.** 58.4 µM

**Q.** What about the GI50 [4] of the same molecule?
**A.** 39.5 µM

**Q.** What about the TGI [4] of the same molecule?
**A.** > 100 µM

**Q.** What about the TGI [5] of the same molecule?
**A.** 20.2 µM

**Q.** And the GI50 [6]?
**A.** 24.3 µM

**Q.** And the TGI [6]?
**A.** 70.1 µM

**Q.** And the GI50 [7]?
**A.** 33.1 µM

**Q.** What about the TGI [7] of the same molecule?
**A.** > 100 µM

**Q.** And the GI50 [8]?
**A.** 16.5 µM

**Q.** What about the TGI [8] of the same molecule?
**A.** 33.5 µM

**Q.** What about the GI50 [9] of the same molecule?
**A.** 30.9 µM

**Q.** And the TGI [9]?
**A.** > 100 µM

**Q.** And the GI50 [10]?
**A.** 35.3 µM

**Q.** And the TGI [10]?
**A.** > 100 µM

**Q.** And the GI50 [11]?
**A.** 17.5 µM

**Q.** And the TGI [11]?
**A.** 42.8 µM

**Q.** And the GI50 [12]?
**A.** 2.91 µM

**Q.** What about the TGI [12] of the same molecule?
**A.** 27.5 µM

**Q.** What about the GI50 [13] of the same molecule?
**A.** > 100 µM

**Q.** And the TGI [13]?
**A.** > 100 µM

**Q.** What about the GI50 [14] of the same molecule?
**A.** 29.6 µM

**Q.** What about the TGI [14] of the same molecule?
**A.** > 100 µM

**Q.** What about the GI50 [15] of the same molecule?
**A.** 18.5 µM

**Q.** And the TGI [15]?
**A.** 34.6 µM

**Q.** What about the GI50 [16] of the same molecule?
**A.** 7.82 µM

**Q.** What about the TGI [16] of the same molecule?
**A.** 25.4 µM

**Q.** And the GI50 [17]?
**A.** 17.3 µM

**Q.** What about the TGI [17] of the same molecule?
**A.** 75.6 µM

**Q.** And the GI50 [18]?
**A.** 26 µM

**Q.** What about the TGI [18] of the same molecule?
**A.** > 100 µM

**Q.** And the GI50 [19]?
**A.** 22.5 µM

**Q.** And the TGI [19]?
**A.** 59.2 µM

**Q.** What about the GI50 [20] of the same molecule?
**A.** 26.7 µM

**Q.** And the TGI [20]?
**A.** > 100 µM

**Q.** What about the GI50 [21] of the same molecule?
**A.** 0.684 µM

**Q.** And the TGI [21]?
**A.** 21 µM

**Q.** What about the GI50 [22] of the same molecule?
**A.** 17 µM

**Q.** And the TGI [22]?
**A.** 36.8 µM

**Q.** And the GI50 [23]?
**A.** 2.9 µM

**Q.** And the TGI [23]?
**A.** 21.1 µM

**Q.** What about the GI50 [24] of the same molecule?
**A.** 14.4 µM

**Q.** What about the TGI [24] of the same molecule?
**A.** 28.4 µM

**Q.** And the GI50 [25]?
**A.** 17.4 µM

**Q.** And the TGI [25]?
**A.** 40.2 µM

**Q.** What about the GI50 [26] of the same molecule?
**A.** 14.3 µM

**Q.** What about the TGI [26] of the same molecule?
**A.** 28.6 µM

**Q.** And the GI50 [27]?
**A.** 16.3 µM

**Q.** What about the TGI [27] of the same molecule?
**A.** 35.4 µM

**Q.** And the GI50 [28]?
**A.** 11.1 µM

**Q.** What about the TGI [28] of the same molecule?
**A.** 26.2 µM

**Q.** And the GI50 [29]?
**A.** 23.7 µM

**Q.** What about the TGI [29] of the same molecule?
**A.** > 100 µM

**Q.** What about the GI50 [30] of the same molecule?
**A.** 15 µM

**Q.** And the TGI [30]?
**A.** 34.7 µM

**Q.** And the GI50 [31]?
**A.** 15.8 µM

**Q.** And the TGI [31]?
**A.** 32.7 µM

**Q.** What about the GI50 [32] of the same molecule?
**A.** 15.7 µM

**Q.** And the TGI [32]?
**A.** 41.2 µM

**Q.** What about the GI50 [33] of the same molecule?
**A.** 15.3 µM

**Q.** And the TGI [33]?
**A.** 38.5 µM

**Q.** And the GI50 [34]?
**A.** > 100 µM

**Q.** What about the TGI [34] of the same molecule?
**A.** > 100 µM

**Q.** And the GI50 [35]?
**A.** 17.4 µM

**Q.** And the TGI [35]?
**A.** 35.5 µM

**Q.** And the GI50 [36]?
**A.** 11.1 µM

**Q.** What about the TGI [36] of the same molecule?
**A.** 33 µM

**Q.** What about the GI50 [37] of the same molecule?
**A.** 18.3 µM

**Q.** And the TGI [37]?
**A.** 45.4 µM

**Q.** And the GI50 [38]?
**A.** 9.79 µM

**Q.** And the TGI [38]?
**A.** 27.5 µM

**Q.** What about the GI50 [39] of the same molecule?
**A.** 14.5 µM

**Q.** What about the TGI [39] of the same molecule?
**A.** 36.3 µM

**Q.** What about the GI50 [40] of the same molecule?
**A.** 58 µM

**Q.** What about the TGI [40] of the same molecule?
**A.** > 100 µM

**Q.** And the GI50 [41]?
**A.** 13.6 µM

**Q.** What about the TGI [41] of the same molecule?
**A.** 32.5 µM

**Q.** What about the GI50 [42] of the same molecule?
**A.** 14.3 µM

**Q.** What about the TGI [42] of the same molecule?
**A.** 34.3 µM

**Q.** And the GI50 [43]?
**A.** 18.1 µM

**Q.** And the TGI [43]?
**A.** 39.8 µM

**Q.** And the GI50 [44]?
**A.** 14.7 µM

**Q.** And the TGI [44]?
**A.** 28.2 µM

**Q.** What about the GI50 [45] of the same molecule?
**A.** 16.4 µM

**Q.** And the TGI [45]?
**A.** 33.4 µM

**Q.** What about the GI50 [46] of the same molecule?
**A.** 16.6 µM

**Q.** What about the TGI [46] of the same molecule?
**A.** 30.7 µM

**Q.** What about the GI50 [47] of the same molecule?
**A.** 16.9 µM

**Q.** What about the TGI [47] of the same molecule?
**A.** 36.5 µM

**Q.** And the GI50 [48]?
**A.** 19.6 µM

**Q.** And the TGI [48]?
**A.** 44 µM

**Q.** And the GI50 [49]?
**A.** 16.4 µM

**Q.** What about the TGI [49] of the same molecule?
**A.** 31.7 µM

**Q.** And the GI50 [50]?
**A.** 16.6 µM

**Q.** What about the TGI [50] of the same molecule?
**A.** 35.4 µM

**Q.** What about the GI50 [51] of the same molecule?
**A.** 10.7 µM

**Q.** And the TGI [51]?
**A.** 27.3 µM

**Q.** What about the GI50 [52] of the same molecule?
**A.** 22.9 µM

**Q.** And the TGI [52]?
**A.** > 100 µM

**Q.** And the GI50 [53]?
**A.** 15.2 µM

**Q.** What about the TGI [53] of the same molecule?
**A.** 43.3 µM

**Q.** What about the GI50 [54] of the same molecule?
**A.** 15.4 µM

**Q.** And the TGI [54]?
**A.** 31.2 µM

**Q.** What about the GI50 [55] of the same molecule?
**A.** 46.2 µM

**Q.** What about the TGI [55] of the same molecule?
**A.** > 100 µM

**Q.** What about the GI50 [56] of the same molecule?
**A.** 15.7 µM

**Q.** What about the TGI [56] of the same molecule?
**A.** 37.6 µM

**Q.** And the GI50 [57]?
**A.** 19.5 µM

**Q.** And the TGI [57]?
**A.** 41.5 µM

**Q.** And the GI50 [58]?
**A.** 16.3 µM

**Q.** What about the TGI [58] of the same molecule?
**A.** 30.8 µM

**Q.** And the GI50 [59]?
**A.** > 100 µM

**Q.** What about the TGI [59] of the same molecule?
**A.** > 100 µM
